Measurements: patent publication US6977296B2, “HUMAN CERVICAL CANCER SUPPRESSOR PROTEIN, POLYNUCLEOTIDE ENCODING THE PROTEIN, CELL TRANSFORMED WITH THE POLYNUCLEOTIDE AND METHOD FOR SUPPRESSING PROLIFERATION OF CANCER CELL USING THE EXPRESSION VECTOR” (priority 2000, dated 2005)

Test system: HeLa cervical cancer cells
Assay: Adriamycin or UVC-triggered apoptosis: cell cycle kinetic analysis (PI, FACS)
Type: cell-based, human
Description: To examine whether a drug or UV light triggers apoptosis of the cells transfected with HCCS-1 gene, the cell cycle kinetic analysis was conducted as described by Hedley, D. W.(in Flow Cytometry, DNA Analysis from Paraffin-embedded Blocks (eds Darzynkiewicz, Z. & Crissman, H. A.) 139 (Academic Press, San Diego, 1990)).
HeLa cells transfected with HCCS-1 gene obtained in Step 2 of Example 4 and parental wild-type cells were cultured until mid-log phase and incubated in Waymouth MB 752/1 medium containing 0.5% bovine calf serum for 36 hours to arrest the cell growth at G0/G1 phase. The cells were treated with adriamycin (0.1 and 2 μg/ml, respectively) or UVC (50 J/m^2) and then the cells were cultured in Waymouth MB 752/1 medium containing 0.5% bovine calf to resume the cell growth. After 24 hours, HeLa cells were harvested, treated with trypsin, and fixed in 70% ethanol.
50 μg/ml of PI staining solution (Sigma) and 100 units/ml of RNase A (Boerhinger Mannheim) were added to 2×10^6 of the fixed cells. After incubation for 1 hour, the cellular DNA content was determined by fluorescence analysis at 488 nm using a FACS Caliber (Becton Dickinson). A minimum of 1×10^4 cells per sample was analyzed with Modfit 5.2 software.

## COc1cccc2c1C(=O)c1c(O)c3c(c(O)c1C2=O)C[C@@](O)(C(=O)CO)C[C@@H]3O[C@H]1C[C@H](N)[C@H](O)[C@H](C)O1 [adriamycin]
Adriamycin 0.1 and 2 μg/ml, 24 hours
  differences in cell populations with respect to cell cycle progression between wild-type and HCCS-1-transfected HeLa cells: no significant differences
wild-type HeLa cells, 24 hours after adriamycin 0.1 and 2 μg/ml
  cells in apoptotic sub G0/G1-phase: few cells remained in apoptotic sub G0/G1-phase
